{"source": "patent US20180085386A1", "about": "“URIDINE MONOPHOSPHATE AND TRIPHOSPHATE DERIVATIVES, COMPOSITIONS AND METHODS OF USE” (Tufts University, priority 2016, published 2018)", "key": {"P2Y6 receptor [1]": {"target": "T1, P2Y6 receptor (Homo sapiens, UniProt Q15077)", "T1 sequence (Q15077 whole entry)": "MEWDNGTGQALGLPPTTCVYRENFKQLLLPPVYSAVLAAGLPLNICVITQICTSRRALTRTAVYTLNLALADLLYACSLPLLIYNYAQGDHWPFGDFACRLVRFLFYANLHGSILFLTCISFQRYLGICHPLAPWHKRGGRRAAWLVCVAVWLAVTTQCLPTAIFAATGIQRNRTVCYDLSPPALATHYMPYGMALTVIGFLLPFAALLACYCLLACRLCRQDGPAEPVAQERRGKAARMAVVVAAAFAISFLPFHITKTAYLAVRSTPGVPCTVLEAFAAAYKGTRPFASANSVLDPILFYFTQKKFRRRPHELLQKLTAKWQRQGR", "experiment": "Activation of P2Y6 receptor: receptor induced Ca2+ changes with fluo-4 in 1321N1 cells", "type": "cell-based", "parameters": "expressed in transfected cells; host or cells: 1321N1 human astrocytoma cells", "description": "(§1) Nucleoside disphosphate analogs of the foregoing compounds were tested for activation of P2Y6 receptor by measuring receptor induced Ca^2+ changes with the fluorescent Ca^2+ indicator fluo-4. 1321N1 human astrocytoma cell lines either expressing P2Y2, P2Y4 or P2Y6 receptors were plated into 24-well plates. Two days after plating, fluorometric measurements were made and responses of cells to a serial dilution of compound were determined. P2Y6 receptor mediated Ca^2+ fluorescent change was determined by normalized accumulation of fluorescent change of 3 timepoints after compound administration subtracted by value from ACSF control. Changes in fluorescent intensity were plotted corresponding to compound concentration in GraphPad. Dose-response curve and EC50 for each compound was estimated using nonlinear curve fit and Sigmoidal dose-response analysis. […]\n(§2) Synthetic compounds were tested for activation of P2Y6 receptor by measuring receptor induced Ca^2+ changes with the fluorescent Ca^2+ indicator fluo-4, and results are shown in FIGS. 3(A)-(K). […] Two days after plating, fluorometric measurements were made and responses of cells to a serial dilution of compound were determined. P2Y6 receptor mediated Ca^2+ fluorescent change was determined by normalized accumulation of fluorescent change of 3 timepoints after compound administration subtracted by value from ACSF control. […]"}, "P2Y2 receptor": {"target": "T2, P2Y2 receptor (Homo sapiens, UniProt P41231)", "T2 construct": "expressed in transfected cells; host or cells: 1321N1 human astrocytoma cells", "T2 sequence (P41231 whole entry)": "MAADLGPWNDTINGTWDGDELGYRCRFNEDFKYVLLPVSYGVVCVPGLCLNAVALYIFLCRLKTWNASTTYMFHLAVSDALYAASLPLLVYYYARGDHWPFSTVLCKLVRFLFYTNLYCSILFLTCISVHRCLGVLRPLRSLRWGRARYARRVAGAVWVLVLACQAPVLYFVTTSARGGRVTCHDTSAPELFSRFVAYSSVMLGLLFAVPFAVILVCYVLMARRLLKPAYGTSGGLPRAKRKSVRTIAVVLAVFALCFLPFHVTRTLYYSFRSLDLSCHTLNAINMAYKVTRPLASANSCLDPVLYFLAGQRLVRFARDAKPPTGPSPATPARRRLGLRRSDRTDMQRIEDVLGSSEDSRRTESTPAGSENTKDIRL", "experiment": "Ca2+ mobilizing effect (fluo-4) in 1321N1 cells expressing P2Y2 receptor", "type": "cell-based", "description": "as §1, §2"}, "P2Y4 receptor": {"target": "T3, P2Y4 receptor (Homo sapiens, UniProt P51582)", "T3 construct": "expressed in transfected cells; host or cells: 1321N1 human astrocytoma cells", "T3 sequence (P51582 whole entry)": "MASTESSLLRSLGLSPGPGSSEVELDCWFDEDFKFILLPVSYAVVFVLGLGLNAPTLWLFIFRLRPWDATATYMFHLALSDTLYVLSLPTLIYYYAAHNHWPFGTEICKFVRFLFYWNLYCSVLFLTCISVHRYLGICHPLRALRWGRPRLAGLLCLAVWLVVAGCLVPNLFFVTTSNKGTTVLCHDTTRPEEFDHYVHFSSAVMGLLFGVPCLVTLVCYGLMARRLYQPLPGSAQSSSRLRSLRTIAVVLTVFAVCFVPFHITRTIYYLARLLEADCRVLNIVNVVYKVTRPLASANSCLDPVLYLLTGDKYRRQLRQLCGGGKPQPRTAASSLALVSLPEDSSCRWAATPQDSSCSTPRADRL", "experiment": "Ca2+ mobilizing effect (fluo-4) in 1321N1 cells expressing P2Y4 receptor", "type": "cell-based", "description": "as §1, §2"}, "PSAPP mice [2]": {"system": "PSAPP mice", "experiment": "Plaque load in cortex and hippocampus by amyloid beta immunostaining", "type": "in vivo, mouse", "settings": "for immunoreactivity of β1-40 in cortex: FIG. 2A; for immunoreactivity of β1-40 in hippocampus: FIG. 2B", "description": "PSB0474 was systemically administered to PSAPP mice via intraperitoneal injection for 2, 4 and 6 consecutive days. In one group, prior to evaluation and following to administration for 6 consecutive days, treatment was suspended for two weeks (6+2 weeks group). Brains were then fixed and plaque load was evaluated by immunostaining with the amyloid beta specific antibodies: β1-40 and β1-42. Representative images of plaque load in cortex and hippocampus from animals that received injections of PSB0474 according to the foregoing injection schedules are shown in FIGS. 1(A)-(D). […] Whereas, when administration of PSB0474 was stopped for 2 weeks following six consecutive days of treatment (denoted as the 6+2 weeks group), β1-40 staining rebounded; although to a level lower than observed in mice treated with saline as a vehicle control. […] FIGS. 2C-2F depict data obtained following administration of different dosages of PSB0474.\nTo generate these graphs showing plaque load, mice were euthanized, brain sections cut and antibodies directed against Aβ42 were used to disclose Aβ plaques. Images were acquired digitally and an algorithm was applied to threshold the image so that plaques were isolated from the background. The algorithm then calculated the percent area of the field of view occupied by the plaques.\nBrain samples were collected for Abeta analysis with immunostaining. Brains samples were collected after transcardial perfusion with phosphate buffer and 4% paraformaldehyde. Floating brain sections (40 micron) were collected using a microtome. Immunostaining for […] and Aβ42 were performed according to previously established protocol. Images with DAB staining were collected with brightfield microscopy and analyzed with ImageJ Macro. All data analysis and statistics were performed in GraphPad Prism 6.0.\n(§3) In this study, treatment of PSAPP mice commenced when the mice were pre-symptomatic. Specifically, treatment was initiated when the mice were approximately 3 months old. PSAPP mice were treated for 100 days with daily, intraperitoneal injections of 10 μg/kg of compound 5 or vehicle. Following treatment, mice were assessed in a fear conditioning task for memory formation. Subsequently, plaque burden in the mice was also evaluated. The data provided in Examples 16 and 17 is for 19 vehicle treated mice and 22 compound treated mice. The data provided for the vehicle-treated group is the average across those mice, and error bars depict the standard error (SEM). Similarly, the data provided for the compound-treated group is the average across those mice, and the error bars depict the SEM.\nas §3, with “assessed for the following: concentration of circulating pro-inflammatory cytokines; amyloid beta load (e.g., plaque burden); and memory” for “assessed”, “formation.” for “formation. Subsequently, plaque burden in the mice was also evaluated.”, “Example 18” for “Examples 16 and 17”, “18” for “19”, “20” for “22”, “SEM. Mice were first evaluated in the fear conditioning task experiment. Subsequently, plasma was taken for multiplex cytokine analysis of circulating levels of cytokine in the plasma. Finally, plaque burden was assessed in the cortex and hippocampus of the mice.” for “SEM.”\nIn this study, treatment of PSAPP mice commenced after the mice were already symptomatic. Specifically, treatment was initiated when the mice were approximately 6 months old. […]"}, "P2Y6 receptor [3]": {"target": "T1, P2Y6 receptor", "settings": "cited from earlier work"}, "PSAPP mice [4]": {"system": "PSAPP mice", "experiment": "Tolerability of increased dose of PSB0474 in PSAPP mice", "type": "in vivo, mouse", "settings": "1000× increase in dose"}, "THP-1 cells": {"system": "THP-1 cells", "experiment": "Cytokine release from human THP-1 cells (multiplex analysis of culture medium)", "type": "cell-based", "settings": "24 hours, vs vehicle", "description": "THP-1 cells, a human cell line derived from monocytes, were treated in vitro with vehicle, the P2Y6 receptor antagonist MRS 2578, or compound 5, singly or in combination. THP-1 cells were seeded in 24 well plates at a density of 4×10^5 cells/well in culture medium for 24 hours. Thereafter, vehicle, compound 5, or MRS 2578 (singly or in combination) were added to the cultures for 24 hours. Subsequently the culture medium was aspirated and subjected to multiplex cytokine analysis. Data are presented as means+/−sem. MRS 2578 has a molecular weight of about 472 and is also described using CAS number 711019-86-2."}}, "note": "Read-outs that look alike come from different tables or passages of the source.", "data": [{"smiles": "O=c1ccn(C2OC(COP(=O)(O)OP(=O)(O)O)C(O)[C@@H]2O)c(=O)n1Cc1noc2ccccc12", "note": "(stereo partly shown)", "values": [{"measurement": "EC50", "setting": "P2Y6 receptor [1]; 1321N1 human astrocytoma cells expressing P2Y6, fluo-4 Ca2+ fluorescence", "value": 12, "unit": "nM"}, {"measurement": "ability to elevate Ca^2+ signals in P2Y6 receptor expressing cells", "setting": "P2Y6 receptor [1]; with addition of the P2Y6 antagonist MRS2578", "value": "attenuated"}, {"measurement": "elevating Ca^2+ levels in P2Y2 receptor expressing cells", "setting": "P2Y2 receptor", "value": "not effective"}, {"measurement": "elevating Ca^2+ levels in P2Y4 receptor expressing cells", "setting": "P2Y4 receptor", "value": "not effective"}]}, {"smiles": "O=C(Cn1c(=O)ccn([C@@H]2O[C@H](COP(=O)(O)OP(=O)(O)O)[C@@H](O)[C@H]2O)c1=O)c1ccccc1", "note": "[3-phenacyl-UDP, reference compound]", "values": [{"measurement": "β1-40 staining", "setting": "PSAPP mice [2]; 6 consecutive days, then stopped for 2 weeks (6+2 weeks group), still lower than saline control", "value": "rebounded"}, {"measurement": "effects on the efficacy endpoint (plaque load)", "setting": "PSAPP mice [2]; higher dose of 1 mg/kg, FIGS. 2C-2F", "value": "smaller effects"}, {"measurement": "immunoreactivity of β1-40 in cortex", "setting": "PSAPP mice [2]; i.p. for 4 consecutive days", "value": "significantly decreased"}, {"measurement": "immunoreactivity of β1-40 in hippocampus", "setting": "PSAPP mice [2]; i.p. for 4 consecutive days", "value": "significantly decreased"}, {"measurement": "immunoreactivity of β1-40 in cortex", "setting": "PSAPP mice [2]; i.p. for 6 consecutive days", "value": "significantly decreased"}, {"measurement": "immunoreactivity of β1-40 in hippocampus", "setting": "PSAPP mice [2]; i.p. for 6 consecutive days", "value": "significantly decreased"}, {"measurement": "EC50", "setting": "P2Y6 receptor [3]; P2Y6 receptor agonist", "value": 70, "unit": "nM"}, {"measurement": "selectivity for P2Y6 receptor", "setting": "P2Y6 receptor [3]", "value": "> 500", "unit": "fold"}, {"measurement": "detrimental effects to the animal", "setting": "PSAPP mice [4]", "value": "did not cause detrimental effects"}]}, {"smiles": "S=C=Nc1cccc(NC(=S)NCCCCNC(=S)Nc2cccc(N=C=S)c2)c1", "note": "[MRS 2578]", "values": [{"measurement": "release of fractalkine into culture media", "setting": "THP-1 cells; FIG. 18A", "value": "increased"}, {"measurement": "release of PDGF-BB into culture media", "setting": "THP-1 cells; FIG. 18B", "value": "increased"}, {"measurement": "release of IL-7 into culture media", "setting": "THP-1 cells; MRS 2578 alone, FIG. 18C, FIG. 19", "value": "increased"}]}]}
